Where no end group is shown, it is not given here.
Legend:
WT MSCs [1] = test: OVA-DQ processing by WT MSCs; type: cell-based, mouse; details: OVA-DQ admixed with CA-hnRNPA1
Method: (§1) To evaluate OVA uptake, MSCs were first treated with […] of OVA-AF647 admixed with CA-hnRNPA1 for 1 hour at 37° C. then assessed for their fluorescence intensity by flow-cytometry. To evaluate antigen processing, MSCs were incubated with 10 µg/mL OVA-DQ® admixed with A1 at 37° C. Half an hour later, cells were washed, and regular media added. At the end of the indicated incubation time, cells were collected and washed with cold PBS containing 2% FBS. Fluorescence was monitored by flow cytometry.

[2] = system: mesenchymal stromal cells (MSCs); test: OVA-AF647 intracellular delivery, flow cytometry; type: cell-based; details: OVA-AF647 mixed with 45 μM conjugate, nine hours, vs cargo alone
Method: (§2) Mesenchymal stromal cells (MSCs) were incubated with either unconjugated fluorescently labeled OVA-AF647 alone or mixed with 45 μM of CA-HnRPA1 NLS steroid acid-peptide for nine hours and then intracellular OVA-AF647 delivery was assessed by flow cytometry as described in Example 1. […] The experiment was repeated with DQ™ OVA as cargo to evaluate the intracellular fate of the cargo delivered upon coincubation with CA-HnRPA1 NLS, as described in Example 4.

[3] = system: cross-presenting mesenchymal stromal cell line (cpMSC); test: Antigen-presentation assay using the B3Z reporter system, cross-presenting MSC line; type: cell-based; details: cpMSCs, OVA admixed, vs OVA alone or OVA mixed with CA-SV40NLS
Method: Various bile acid-NLS conjugates were screened using the B3Z reporter system. The B3Z cell line is a T-cell hybridoma specific for the H2-K^b-[…] complex. Once activated via its TCR, the LacZ reporter gene (under the NFAT promoter control) is expressed. Briefly, 1.5×10^5 BMDCs or 2.5×10^5 MSCs were co-cultured with 5×10^4 B3Z cells treated with the mixing conditions of ovalbumin (OVA) and bile acid-NLS conjugates for overnight at 37° C. with 5% CO2. The following day, all cells were washed twice with PBS (pH 7.4), and the cell pellets were lysed by adding 100 μL of a lysis buffer containing 0.15 mM chlorophenol red-beta-D-galactopyranoside (CPRG) substrate (Calbiochem, La Jolla, CA), 0.125% NP40 (EMD Sciences, La Jolla, CA), 9 mM MgCl2 (Aldrich, USA) and 100 mM 2-mercaptoethanol in PBS. After a 5- or 24-h incubation at 37° C., absorbance was taken at 570 nm with 636 nm as the reference wavelength. For these experiments, OVA was re-suspended in PBS (pH 7.3) at 5-10 mg/mL. The different bile acid-NLS conjugates were re-suspended in H2O at 10 mg/mL. Bile acid-NLS conjugate: antigen mixtures were prepared at different molar ratios according to Table 1.
Further variants of CA-SV40NLS were synthesized in which the SV40NLS peptide was replaced with peptides comprising other NLS's (Table 5) and the antigen presentation activities of the CA-NLS peptide conjugates were evaluated using the B3Z reporter system as described in Example 1. The following conjugate: antigen molar ratios were tested for each conjugate: 2:1, 4:1, 8:1, 12:1 and 22:1. The results in FIGS. 12-15 compare the antigen presentation activities of different conjugates at the conjugate: antigen ratio that yielded the highest B3Z response (OD570) for that conjugate.

cpMSCs = test: OVA-AF647 internalization in cpMSCs, flow cytometry; type: cell-based; details: various molar ratios
Method: For this experiment, a cross-presenting mesenchymal stromal cell line (cpMSC) was used as the antigen presenting cells, which were pulsed with the OVA cargo labelled with Alexa Fluor 647 (i.e., OVA^647)^TM. OVA^647 fluorescence was measured by flow cytometry. Different ratios of CA (NLS1 RPS17 [FIG. 16A]; NLS3 RPS17 [FIG. 16B]; and PQBP-1 [FIG. 16C] to antigen (CA: OVA=22:1, 12:1, 8:1, 4:1, and 2:1) were tested (hnRNPA1 M9 NLS at 2:1).
To further dissect the effect of bile acid peptide conjugates on antigen presentation, antigen internalization and processing were evaluated. cpMSCs were pulsed with OVA-labelled with AF647 in the presence of various molar ratios of different bile acid peptide conjugates, NLS1-RPS17 [FIG. 16A]; NLS3 RPS17 [FIG. 16B]; PQBP-1 [FIG. 16C]; and hnRNPA1 M9 NLS [FIG. 6]) and fluorescence was assessed by flow cytometry. […] OVA processing was assessed by pulsing cpMSCs with DQ™-Ovalbumin (OVA-DQ) in the presence of the same bile acid peptide conjugates as in FIGS. 6 and 16.

human WT MSCs = test: OVA uptake by human MSCs, flow cytometry; type: cell-based; details: CA-hnRNPA1-treated human MSCs
MSCs = test: Flow cytometry assessment of ROS production; type: cell-based, mouse; details: WT MSCs
Description: Dp44mt was used as a positive control. […] For FIGS. 19A-19C, n=6/group with *P<0.05, **P<0.01 and ***P<0.001.
Next, the mechanism involved in cross presentation enhancement of steroid acid-peptide conjugates was further dissected.

[4] = system: mesenchymal stromal cells (MSCs); test: DQ OVA degradation/processing in MSCs, flow cytometry; type: cell-based; details: DQ OVA coincubated with conjugate, nine hours
Method: To evaluate OVA degradation/processing, cells were incubated with 10 µg/mL DQ™ OVA (with or without steroid acid-peptide modification) at 37° C. 30 minutes later, cells were washed, and regular media was added. At the end of the indicated incubation time, cells were collected and washed with cold PBS containing 2% FBS. Fluorescence was monitored by analyzing the cells by flow cytometry.
as §2

WT MSCs [5] = test: Flow cytometry of H2-Kb and I-Ab expression; type: cell-based, mouse; details: WT MSCs treated with CA-hnRNPA1
Description: FIG. 18A and FIG. 18B show the results of antigen cross-presentation assay conducted using CA-hnRNPA1 admixed with OVA compared to controls and CA-SV40. […] For FIGS. 18B, 18E and 18F, n=6/group with *P<0.05, **P<0.01 and ***P<0.001.
FIG. 18G and FIG. 18H show the increase in H2-Kb and I-Ab expression in WT MSCs treated with CA-hnRNPA1, respectively.

WT MSCs [6] = test: OVA-AF647 uptake by WT MSCs; type: cell-based, mouse; details: OVA-AF647 admixed with CA-hnRNPA1
Method: as §1

## CA-hnRNPA1: cholic acid conjugated to hnRNPA1 M9 NLS peptide CSNFGPMKGGNFGGRSSGPY (SEQ ID NO: 4) (not fully specified (N-terminus); also: cholic acid conjugate, site not given here)
WT MSCs [1]
  OVA processing by WT MSCs: increase in OVA processing
[2]; listed as CA-HnRPA1
  intracellular OVA-AF647 cargo delivery: increased intracellular cargo delivery
[2]; listed as CA-hnRPA1 M9 NLS
  intracellular OVA-AF647 cargo delivery: increased intracellular delivery
[3]
  antigen-presentation activity of cholic acid-NLS peptide conjugates (B3Z response): amongst the best enhancers of cross presentation
[3]; listed as CA-hnRNPA1 M9 NLS
  antigen-presentation activity of cholic acid-NLS peptide conjugates (B3Z response): highly enhance cross presentation
cpMSCs
  OVA internalization (OVA-AF647 fluorescence): enhance OVA internalization
Human WT MSCs
  OVA uptake by human MSCs: increase of OVA uptake
MSCs
  ROS production by MSCs: increase in ROS production
[4]; listed as CA-HnRPA1 NLS
  DQ OVA fluorescence (intracellular degradation/processing): sharp increase
[4]; listed as CA-hnRPA1 M9 NLS
  DQ OVA fluorescence (intracellular degradation/processing): increased intracellular degradation/processing
WT MSCs [5]
  I-Ab expression: increase
WT MSCs [6]
  OVA uptake by WT MSCs: increase in OVA uptake
